Results reported in patent publication US6492330B1, “Antiangiogenic drugs” (National Institute of Immunology, priority 1996, dated 2002).
Non-standard residues stand in square brackets, D forms with d. No end group written: not given here. Deg = CCC(N)(CC)C(=O)O; Aib = CC(C)(N)C(=O)O

Columns and labels:
Assay type in all cases: cell-based
ECV.304 cells = assay: MTT assay, inhibition of proliferation of endothelial cells ECV.304; settings: 72 hours (Table 2)
Experimental: 150 μl of medium was added to the wells of a 96-well tissue culture plate (Nunc, Denmark) followed by 30 μl of cell suspension. The plate was left in incubator (37° C., 5% CO2) overnight. Each of the seven peptides of the combination MuJ-7 were added at three molar concentrations of 10^−7M, 10^−8M and 10^−9M. 20 μl of MuJ-7 at three concentrations of N/10, N and 10N was added to marked wells of the 96-well plate. The value of N for each of the individual peptides was 10^−8M for VIP2, BOM1, SP1, VIP3, and SOM2 and 10^−7M for VIP1, and 10^−9M for SOM1. Each concentration was plated in triplicate. 20 μl of medium alone was added to control wells while wells without cells served as blanks. A total volume of 200 μl was ensured in each well and the plate was left in an incubator (37° C., 5% CO2). After 72 hours of incubation an MTT assay was performed and percentage inhibition in proliferation of treated cells was calculated with respect to control cells.
150 μl of medium was added to the wells of a 96-well tissue culture plate (Nunc, Denmark) followed by 30 μl of cell suspension. The plate was left in incubator (37° C., 5% CO2) overnight. Novel peptides shown below were incubated with cells at concentration range of 10^−7 to 10^−9 M (except DT71 at concentration range 10^−8 to 10^−10 M). Each concentration was plated in triplicates. 20 μl of medium alone was added to control wells while wells without cells served as blanks. A total volume of 200 μl was ensured in each well and plate was left in incubator (37° C., 5% CO2). After 72 hours of incubation an MTT assay was performed and percentage inhibition in proliferation of treated cells was calculated with respect to control cells.

[1] = system: endothelial cells ECV.304; assay: Migration assay across 8 μm polycarbonate filter transwell inserts; settings: 24 hours (Table 4)
Experimental: Polycarbonate filter transwell inserts (24 well size) with 8 μm pores (Nunc, Denmark) were used for the migration assay. ECV304 (10^4 cells/200 ul DMEM containing 0.1% BSA) was added to the upper chamber. The lower chamber contained 600 ul of DMEM with 0.1% BSA. Individual peptides of the composition MuJ-7 at six different concentrations each of N/100, N/10, N, 10N, 100N and 1000N were added directly to the upper well and the plate incubated at 37° C. for 24 hours. The cells migrated to the lower chamber were viewed randomly at five different phase-contrast microscopic fields and the total number of cells counted using Video Pro 32 Image Analysis system. Percent inhibition in migration was determined with reference to the Control. Similarly, […] different concentrations of N/100, N/10, N, 10N, 100N and 1000N of MuJ-7 were added directly to the upper well and the plate incubated at 37° C. for 24 hours. The cells migrated to the lower chamber were counted as described above.
Polycarbonate filter trasnwell inserts (24 well size) with 8 μm pores (Nuno, Denmark) were used for the migration assay. ECV304 (10^4 cells/200 ul DMEM containing 0.1% BSA) was added to the upper chamber. The lower chamber contained 600 ul of DMEM with 0.1% BSA. […] The sequence of each of the peptides added are described above. The cells migrated to the lower chamber were viewed randomly at five different phase-contrast microscopic fields and the total number of cells counted using Video Pro 32 Image Analysis system. Percent inhibition in migration was determined with reference to Control. […]

ECV304 = assay: Tube-like-structure (TLS) formation on Matrigel; settings: 24 hours
Experimental: Matrigel (350 ul) was placed into each well of a 24-well culture plate at 4° C. and was allowed to polymerize by incubation at 37° C. for 30 min. ECV304 (1.5×10^4) were seeded on the Matrigel in 500 ul DMEM supplemented with 10% FBS. MuJ-7 at four different concentrations of 0.25×, 0.5×, ×, & 5.0× were added and. the plate incubated at 37° C. for 24 hour. “×” denotes normal concentration of MuJ-7 where molar concentration of individual peptides was 10^−8 M for VIP2, BOM1, SP1, VIP3 and SOM2 and 10^−7 M for VIP1 and 10^−9 M for SOM1. […] Percent inhibition in tube area was determined with reference to untreated cells.
Matrigel (350 ul) was placed into each well of a 24-well culture plate at 4° C. and was allowed to polymerize by incubation at 37° C. for 30 min. ECV304 (1.5×10^4) were seeded on the Matrigel in 500 ul DMEM supplemented with 10% FBS. […] Percent inhibition in tube length was determined with reference to untreated cells.
Matrigel (350 ul) was placed into each well of a 24-well culture plate at 4° C. and was allowed to polymerize by incubation at 37° C. for 30 min. ECV304 (1.5×10^4) were seeded on the Matrigel in 500 ul DMEM supplemented with 10% FBS. Individual peptides of the composition MuJ-7 at three different concentrations each of N/10, N, and 10N were added and the plate incubated at 37° C. for 24 hours. […] Percent inhibition in tube length was determined with reference to Control. Similarly, three different concentrations of N/10, N, and 10N of MuJ-7 were added to the well and the plate incubated at 37° C. for 24 hours. Percent inhibition in tube length was determined with reference to Control as described previously (Table 10).

[2] = analog at optimum concentration −8M

| Substance | PERCENT INHIBITION OF PROLIFERATION (ECV.304 cells; ECV304, 10^−7M) | PERCENT INHIBITION OF PROLIFERATION (ECV.304 cells; ECV304, 10^−8M) | PERCENT INHIBITION OF PROLIFERATION (ECV.304 cells; ECV304, 10^−9M) | PERCENT INHIBITION MIGRATION [1, 2] | INHIBITION OF TUBE LENGTH (ECV304; peptide −8M) | PERCENT INHIBITION OF PROLIFERATION (ECV.304 cells; ECV304, 10^−10M) | PERCENT INHIBITION MIGRATION ([1]; analog at optimum concentration −9M) | INHIBITION OF TUBE LENGTH (ECV304; peptide −9M) |
| --- | --- | --- | --- | --- | --- | --- | --- | --- |
| D-Leu-Met-Tyr-Pro-Thr-Tyr-D-Leu-Lys-OH ([dL]MYPTY[dL]K-OH; N-terminus assumed; SMILES CSCC[C@H](NC(=O)[C@H](N)CC(C)C)C(=O)N[C@@H](Cc1ccc(O)cc1)C(=O)N1CCC[C@H]1C(=O)N[C@H](C(=O)N[C@@H](Cc1ccc(O)cc1)C(=O)N[C@H](CC(C)C)C(=O)N[C@@H](CCCCN)C(=O)O)[C@@H](C)O) [DT-16] | 24.0% | 24.7% | 37.9% | 90.07% | 18.9% | – | – | – |
| D-Leu-Met-Tyr-Pro-Thr-Tyr-Deg-Lys-OH ([dL]MYPTY[Deg]K-OH; N-terminus assumed; SMILES CCC(CC)(NC(=O)[C@H](Cc1ccc(O)cc1)NC(=O)[C@@H](NC(=O)[C@@H]1CCCN1C(=O)[C@H](Cc1ccc(O)cc1)NC(=O)[C@H](CCSC)NC(=O)[C@H](N)CC(C)C)[C@@H](C)O)C(=O)N[C@@H](CCCCN)C(=O)O) [DT-19] | 11.9% | 7.3% | 21.0% | 80.4% | 37.8% | – | – | – |
| D-Phe-Cys-Tyr-D-Trp-Lys-Thr-Aib-Thr-NH2 (XCYXKTXT; D-amino acids, Aib, C-terminal amide) [DT-71] | – | 14.6% | 12.1% | – | – | 9.4% | 68.2% | 9.9% |
| D-Phe-Gln-Trp-Aib-Val-Gly-His-Ile-NH2 ([dF]QW[Aib]VGHI-NH2; N-terminus assumed; SMILES CC[C@H](C)[C@H](NC(=O)[C@H](Cc1c[nH]cn1)NC(=O)CNC(=O)[C@@H](NC(=O)C(C)(C)NC(=O)[C@H](Cc1c[nH]c2ccccc12)NC(=O)[C@H](CCC(N)=O)NC(=O)[C@H](N)Cc1ccccc1)C(C)C)C(N)=O) [DT-26] | 0% | 0% | 0% | 0% | 0% | – | – | – |
| LM[dY]PTY[dL]K-OH [DT-15] | 20.4% | 13.2% | 20.0% | 73.2% | 0% | – | – | – |
| Leu-Met-Tyr-Pro-Thr-D-Tyr-Leu-Lys-OH (LMYPT[dY]LK-OH; N-terminus assumed; SMILES CSCC[C@H](NC(=O)[C@@H](N)CC(C)C)C(=O)N[C@@H](Cc1ccc(O)cc1)C(=O)N1CCC[C@H]1C(=O)N[C@H](C(=O)N[C@H](Cc1ccc(O)cc1)C(=O)N[C@@H](CC(C)C)C(=O)N[C@@H](CCCCN)C(=O)O)[C@@H](C)O) [DT-13] | 22.6% | 20.3% | 18.4% | 89.7% | 16.2% | – | – | – |
